From patent publication US20260315446A1, “ANTIFUNGAL COMPOUNDS AND USES THEREOF” (priority 2023, published 2026)
Entries after “also recorded” stand apart in the source; their conditions may differ. Like-named read-outs stand apart in the source and are kept apart here.

Key:
[1] = Pharmacokinetics in whole blood; assay type: in vivo, mouse (CD-1); conditions: for Cmax / Tmax / AUC / CL/F / half-life: mouse, in vivo, ip, 40 mg/kg, 40 mg/kg i.p. single dose, whole blood; for AUC: read-out: AUC (area under the curve); for CL/F: read-out: CI/F (clearance as Dose/AUCINF) (converted)
Experimental: For the lead compound JH-FK-08, the mechanism of action resulting in antifungal activity was tested for conservation of calcineurin inhibition. To probe the JH-FK-08 mechanism of action, MICs of JH-FK-08 were determined with fungal mutants that lack the drug-binding protein FKBP12 or have mutations in the binding site on calcineurin that prevent FKBP12-FK506 binding and inhibition. […] Taken together, these findings support the hypothesis that JH-FK-08 requires FKBP12 for antifungal activity, and the target of the FKBP12-JH-FK-08 complex is calcineurin. The length of time that drugs are active in vivo is critical information relevant to drug development, and the time frame of drug activity can have a drastic impact on treatment regimen and efficacy. Therefore, the pharmacokinetic profiles of FK506 and JH-FK-08 were investigated. Three male and three female CD1 mice were administered a single dose of JH-FK-08 or FK506 at 40 mg/kg. Whole blood samples were taken over a 24-hour period, and the drug concentration remaining in the blood was determined. Pharmacokinetic parameters were calculated using a non-compartmental approach (see, Gabrielsson J, Weiner D. 2012. Methods Mot Biol Clifton NJ 929:377-389). […] When assessing specific pharmacokinetic measures, sex differences began to emerge.
Male (n=3, avg. 28 g) and female (n=3, avg. 25 g) CD-1 mice were injected intraperitoneally with 40 mg/kg of either JH-FK-08 or FK506. The drug formulation was 10% Kolliphor/10% ethanol/80% PBS given as 10 μL/g body weight (i.e., 200 μL per 20 g mouse). Blood (~30 μL) was collected serially (“tail snip”) at 10, 20, and 45 min and 1.5, 3, 6, 12, and 24 h into vials containing […] of 75 mg/mL K2EDTA in water and immediately frozen until the day of liquid chromatography-tandem-mass spectroscopy (LC/MS/MS) analysis. Blood concentration/time data were utilized to calculate relevant PK parameters using the non-compartmental approach and extravascular administration model within WinNonlin (2.1) software.
In a 0.5-mL polypropylene vial, 10 μL blood and 20 μL of acetonitrile fortified with 100 ng/mL FK520 (internal standard) were vigorously agitated in the FastPrep FP120 apparatus (Thermo-Savant) at speed four for 45 s. After centrifugation for 5 min at 16,000 rpm, 20 μL of supernatant was transferred to a polypropylene autosampler vial. LC/MS/MS (Agilent 1200 series HPLC and Sciex/Applied Biosystems API 5500 QTrap) was utilized to quantify JH-FK-08 and FK506 in mouse blood. Analytical column: Agilent Eclipse Plus (C18, 1.8 μm, 50×4.6 mm), at 40° C. Mobile phase: (A) 0.1% formic acid, 10 mM ammonium acetate, 2% acetonitrile in water, and (B) methanol. Elution gradient: 0-0.1 min 30%-98% B, 0.1-1.5 min 98% B, 1.5-1.6 min 98%-30% B, and 1.6-2.1 min 30% B. Run time: 5 min. Injection volume: 10 μL. Mass spectrometer parameters (voltages, gas flow, and temperature) were optimized by infusion of 100 ng/mL of analytes in the mobile phase at 10 μL/min using the Analyst 1.6.2 software tuning module. The MS/MS (m/z) transitions used for quantification were 864.4/846.5 (JH-FK-08), 821.4/768.5 (FK506), and 809.4/756.5 (FK520, internal standard). A set of calibrator samples in drug-free blood was prepared by adding appropriate amounts of pure analyte (JH-FK-08 or FK506) in the […] range. The calibration samples were analyzed alongside the experimental samples. The accuracy acceptance criterion was 85% for each but the lowest level (2.43 ng/mL, 80%, LLOQ). Analyst 1.6.2 software was used for data acquisition, integration of the chromatograms, calibration curve calculation, and quantification of the study samples.

[2] = tested on: C. neoformans growth versus IL-2 in murine T cells; assay: Therapeutic index score (immunosuppressive fold change to antifungal fold change relative to FK506); design: species or system Cryptococcus neoformans; mouse; conditions: for Therapeutic Index Score: FK506 = 1.0
Procedure, shortened: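 TIscore = ratio of immunosuppressive fold change (IL-2, murine T cells) to antifungal fold change (C. neoformans), both relative to FK506; values >1.0 denote greater fungal specificity. Derived from in vitro fungal versus mammalian calcineurin inhibition data.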

[3] = females, read-out: t1/2 (3-12 h) (half-life) (converted)
[4] = females, read-out: t1/2 (12-24 h) (half-life) (converted)
[5] = males, read-out: t1/2 (3-12 h) (half-life) (converted)
[6] = males, read-out: t1/2 (12-24 h) (half-life) (converted)

Compound | Cmax ([1]; females) [ng/mL] | Tmax ([1]; females) [h] | AUC ([1]; females) [ng·h/mL] | CL/F ([1]; females) [mL/min/kg] | half-life [1, 3] [h] | half-life [1, 4] [h] | Cmax ([1]; males) [ng/mL] | Tmax ([1]; males) [h] | AUC ([1]; males) [ng·h/mL] | CL/F ([1]; males) [mL/min/kg] | half-life [1, 5] [h] | half-life [1, 6] [h] | Therapeutic index ([2]; Example 3, C. neoformans H99, FK506 = 1.0) | Therapeutic Index Score ([2]; Table 12, Example 4) | Therapeutic Index Score ([2]; Table 13, Example 4) | therapeutic index score (TIscore) ([2]; Example 1, C. neoformans MIC and IL-2 IC50, FK506 = 1.0) | whole blood drug concentration over time versus FK506 ([1]; 40 mg/kg single dose)
C=CCC1C=C(C)CC(C)CC(OC)C2OC(O)(C(=O)C(=O)N3CCCCC3C(=O)OC(C(C)=CC3CCC(O)C(OC)C3)C(C)C(O)CC1=O)C(C)CC2OC (centres unmarked) [FK506, reference compound] | 5960 | 1.11 | 27100 | 25.9 | 1.35 | 3.59 | 4510 | 0.75 | 15200 | 49.4 | 1.48 | 2.46 | 1.0 | 1.0 | 1.0 |  | 
C=CC[C@@H]1/C=C(\C)C[C@H](C)C[C@H](OC)[C@H]2O[C@@](O)(C(=O)C(=O)N3CCCC[C@H]3C(=O)O[C@H](/C(C)=C/[C@@H]3CC[C@@H](O)[C@H](OC)C3)[C@H](C)[C@@H](O)C/C1=N/NC(=O)CC)[C@H](C)C[C@@H]2OC [JH-FK-02] |  |  |  |  |  |  |  |  |  |  |  |  |  |  |  | 9.7 | 
CC[C@@H]1/C=C(\C)C[C@H](C)C[C@H](OC)[C@H]2O[C@@](O)(C(=O)C(=O)N3CCCC[C@H]3C(=O)O[C@H](/C(C)=C/C3CC[C@@H](O)[C@H](OC)C3)[C@H](C)[C@@H](O)C/C1=N/NC(=O)OC)[C@H](C)C[C@@H]2OC (some centres unmarked) [JH-FK-08] | 7500 | 2.5 | 31400 | 21.5 | 1.14 | 1.88 | 4070 | 1.25 | 15600 | 46.4 | 1.29 | 2.26 |  |  |  |  | No significant differences across groups were observed in whole blood samples of drug concentration over time; also recorded: no statistically significant difference between groups
